Experiment: Thiosulfate/Gluconate physical compatibility screening
Type: physicochemical
Conditions: heated to no more than 115° F, visual and olfactory
Text: The final solution was stored at room temperature for 15 days and then examined to determine relative storage stability.

ferrous gluconate
Observation (1 g ferrous gluconate (Mole % 4%) added to 25 g sodium thiosulfate): Mild odor, dissolved when warmed | Observation (2 g ferrous gluconate (Mole % 7%) added to 25 g sodium thiosulfate): Mild odor, dissolved when warmed | Observation (3 g ferrous gluconate (Mole % 11%) added to 25 g sodium thiosulfate): Mod odor, dissolved when warmed | Observation (4.5 g ferrous gluconate (Mole % 16%) added to 25 g sodium thiosulfate): Mod odor, dissolved when warmed | Observation (5 g ferrous gluconate (Mole % 19%) added to 25 g sodium thiosulfate): Mod odor, dissolved when warmed | Observation (6 g ferrous gluconate (Mole % 22%) added to 25 g sodium thiosulfate): Mod odor, dissolved when warmed | Observation (7 g ferrous gluconate (Mole % 26%) added to 25 g sodium thiosulfate): Mod odor, dissolved when warmed | Observation (8 g ferrous gluconate (Mole % 30%) added to 25 g sodium thiosulfate): Mod odor, dissolved when warmed | Observation (9 g ferrous gluconate (Mole % 33%) added to 25 g sodium thiosulfate): Mod odor, dissolved when warmed | Observation (10 g ferrous gluconate (Mole % 37%) added to 25 g sodium thiosulfate): Mod odor, dissolved when warmed | Observation (14 g ferrous gluconate (Mole % 52%) added to 25 g sodium thiosulfate): Mod odor, dissolved when warmed

Source: US20140102978A1, “Composition and Method for Remediation of Contaminated Water” (JRW BIOREMEDIATION LLC, priority 2012, published 2014)
